These are literature values, as cited in patent US5639739A, “Imidazole containing aminoboronic acids” (The DuPont Merck Pharmaceutical Company, priority 1995, dated 1997).

The target in data set [1] is human thrombin (Homo sapiens, UniProt P00734).
The target of data set [2] is thrombin. The settings on record: literature values.
In data set [3] the target is chymotrypsin (Bos taurus, UniProt P00766). To be noted: Matteson et al. 1981.

On to `N=C(N)NCCC[C@H](NC(=O)[C@@H]1CCCN1C(=O)[C@H](N)Cc1ccccc1)C(=O)CCl` [H-(D) Phe-Pro-ArgCH2 Cl], for which the “kind of inhibition of human thrombin” value in data set [1] (Kettner and Shaw 1979) is on record as “selective but irreversible inhibitor”.

The term Ki denotes a dissociation constant, usually derived from enzyme kinetics or from competition with a known ligand. Take `N#CC(CCCNC(=N)N)NC(=O)[C@@H]1CCCN1C(=O)[C@H](N)Cc1ccccc1` (stereo partly drawn) [D-phenylalanyl-prolyl-NHCH((CH2)3 NHC(=NH)NH2)--CN]: the Ki in data set [2] is 700 nM. `N=C(N)NCCC[C@@H](C=O)NC(=O)[C@@H]1CCCN1C(=O)[C@H](N)Cc1ccccc1` [D-phenylalanyl-prolyl-arginal]: in data set [1] (human thrombin, literature values), the Ki was 75 nM. With `CC(=O)N[C@@H](Cc1ccccc1)B(O)O` [Acborophe-OH, R-1-acetamido-2-phenylethane boronic acid], in data set [3], the Ki was 4 µM.
